Results: patent EP4745137A1 (Gluetacs Therapeutics (Shanghai) Co., Ltd., priority 2023, dated 2025)

Columns and labels:
Type in all cases: cell-based
Conditions in all cases: 24 hours of compound treatment, 50 nM and 500 nM tested (concentration behind the class not stated)
IKZF3 = target: T1, IKZF3 (Homo sapiens, UniProt Q96SW2+Q9UKT9); assay: Western-blot assay of substrate protein degradation in hPBMCs, IKZF3
T1 construct: endogenous in cells; host or cells: hPBMCs (Milecell Biotechnologies)
T1 sequence (Q9UKT9 whole entry): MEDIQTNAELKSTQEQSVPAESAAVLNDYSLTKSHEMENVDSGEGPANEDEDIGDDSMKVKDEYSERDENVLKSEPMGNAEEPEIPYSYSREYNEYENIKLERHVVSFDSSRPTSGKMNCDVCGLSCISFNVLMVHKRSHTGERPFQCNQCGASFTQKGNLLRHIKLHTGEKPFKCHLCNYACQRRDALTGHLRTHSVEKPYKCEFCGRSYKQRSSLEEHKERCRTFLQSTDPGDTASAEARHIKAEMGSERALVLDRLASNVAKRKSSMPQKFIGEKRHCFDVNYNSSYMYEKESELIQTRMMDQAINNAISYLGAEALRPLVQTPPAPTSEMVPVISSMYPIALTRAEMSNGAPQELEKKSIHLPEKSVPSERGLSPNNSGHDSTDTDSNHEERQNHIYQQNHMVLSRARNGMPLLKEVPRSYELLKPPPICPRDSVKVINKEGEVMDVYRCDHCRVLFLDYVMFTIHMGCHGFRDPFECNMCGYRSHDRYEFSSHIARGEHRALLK
T1 sequence (Q96SW2 whole entry): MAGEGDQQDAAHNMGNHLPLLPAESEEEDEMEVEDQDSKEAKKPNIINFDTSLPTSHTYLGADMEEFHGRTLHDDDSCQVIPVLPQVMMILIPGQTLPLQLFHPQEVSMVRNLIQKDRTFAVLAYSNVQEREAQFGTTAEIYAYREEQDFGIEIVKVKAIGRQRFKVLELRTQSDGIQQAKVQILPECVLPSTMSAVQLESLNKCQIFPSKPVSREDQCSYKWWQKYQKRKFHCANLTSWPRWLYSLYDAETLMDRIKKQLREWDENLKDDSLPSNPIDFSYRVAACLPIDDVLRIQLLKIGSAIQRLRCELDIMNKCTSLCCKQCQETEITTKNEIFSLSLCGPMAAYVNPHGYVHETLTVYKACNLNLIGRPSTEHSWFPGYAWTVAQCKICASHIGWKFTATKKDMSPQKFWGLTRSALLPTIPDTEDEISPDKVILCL
T1 sequence (Q16531 whole entry partner): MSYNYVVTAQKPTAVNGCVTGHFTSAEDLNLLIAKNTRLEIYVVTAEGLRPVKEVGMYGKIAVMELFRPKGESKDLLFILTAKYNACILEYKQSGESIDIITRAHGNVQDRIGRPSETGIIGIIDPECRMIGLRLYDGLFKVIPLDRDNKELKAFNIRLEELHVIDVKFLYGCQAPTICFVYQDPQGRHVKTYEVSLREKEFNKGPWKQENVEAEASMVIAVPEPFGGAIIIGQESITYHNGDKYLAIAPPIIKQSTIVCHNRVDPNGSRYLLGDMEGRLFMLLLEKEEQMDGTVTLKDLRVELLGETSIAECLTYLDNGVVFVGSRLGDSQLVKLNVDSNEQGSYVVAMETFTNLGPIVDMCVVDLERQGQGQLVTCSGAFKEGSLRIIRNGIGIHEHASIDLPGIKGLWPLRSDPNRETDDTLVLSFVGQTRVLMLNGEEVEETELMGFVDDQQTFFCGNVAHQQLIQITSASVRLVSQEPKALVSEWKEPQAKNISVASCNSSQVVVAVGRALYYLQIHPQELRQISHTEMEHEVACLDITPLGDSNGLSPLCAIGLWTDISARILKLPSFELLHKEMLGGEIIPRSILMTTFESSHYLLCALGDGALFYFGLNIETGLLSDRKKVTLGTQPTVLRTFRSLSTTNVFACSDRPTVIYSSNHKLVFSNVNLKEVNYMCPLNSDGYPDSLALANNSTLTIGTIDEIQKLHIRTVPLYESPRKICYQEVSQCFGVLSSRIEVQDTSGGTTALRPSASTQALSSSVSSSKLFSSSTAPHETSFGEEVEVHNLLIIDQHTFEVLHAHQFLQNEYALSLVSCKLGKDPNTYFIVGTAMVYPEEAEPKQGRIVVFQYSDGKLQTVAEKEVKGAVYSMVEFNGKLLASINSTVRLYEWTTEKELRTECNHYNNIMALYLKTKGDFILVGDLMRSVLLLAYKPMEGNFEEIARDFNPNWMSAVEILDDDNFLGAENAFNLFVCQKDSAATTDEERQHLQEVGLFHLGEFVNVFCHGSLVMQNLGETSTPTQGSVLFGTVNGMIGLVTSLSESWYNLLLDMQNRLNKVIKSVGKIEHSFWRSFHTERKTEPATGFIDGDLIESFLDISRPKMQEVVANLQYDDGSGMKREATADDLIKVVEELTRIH

CK1α = target: T2, CK1α (Homo sapiens, UniProt P48729+Q96SW2); assay: Western-blot assay of substrate protein degradation in hPBMCs, CK1α
T2 construct: endogenous in cells; host or cells: hPBMCs (Milecell Biotechnologies)

WEE1 = target: T3, WEE1 (Homo sapiens, UniProt P30291+Q96SW2); assay: Western-blot assay of substrate protein degradation in hPBMCs, WEE1
T3 construct: endogenous in cells; host or cells: hPBMCs (Milecell Biotechnologies)
T3 sequence (P30291 whole entry): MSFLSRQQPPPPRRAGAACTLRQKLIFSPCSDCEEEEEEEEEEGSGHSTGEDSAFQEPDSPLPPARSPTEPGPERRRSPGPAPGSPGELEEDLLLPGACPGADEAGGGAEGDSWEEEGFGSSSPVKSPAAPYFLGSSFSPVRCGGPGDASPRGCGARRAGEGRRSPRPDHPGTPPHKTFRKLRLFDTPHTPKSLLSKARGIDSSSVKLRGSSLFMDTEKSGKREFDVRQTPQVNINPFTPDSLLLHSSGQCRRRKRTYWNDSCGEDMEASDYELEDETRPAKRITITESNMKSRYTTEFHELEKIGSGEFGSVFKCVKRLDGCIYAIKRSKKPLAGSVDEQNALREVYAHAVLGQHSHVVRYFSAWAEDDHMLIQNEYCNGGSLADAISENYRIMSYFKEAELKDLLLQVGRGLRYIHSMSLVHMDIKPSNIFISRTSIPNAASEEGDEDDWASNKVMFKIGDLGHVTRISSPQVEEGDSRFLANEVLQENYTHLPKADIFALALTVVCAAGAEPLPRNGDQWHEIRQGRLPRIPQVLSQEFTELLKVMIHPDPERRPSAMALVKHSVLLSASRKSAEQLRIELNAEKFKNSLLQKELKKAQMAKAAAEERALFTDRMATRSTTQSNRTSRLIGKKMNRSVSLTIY
T3 sequence (Q96SW2 whole entry): as the sequence (Q96SW2 whole entry) above
T3 sequence (Q16531 whole entry partner): as the sequence (Q16531 whole entry partner) above

IKZF1 = target: T4, IKZF1 (Homo sapiens, UniProt Q13422+Q96SW2); assay: Western-blot assay of substrate protein degradation in hPBMCs, IKZF1
T4 construct: endogenous in cells; host or cells: hPBMCs (Milecell Biotechnologies)
T4 sequence (Q13422 whole entry): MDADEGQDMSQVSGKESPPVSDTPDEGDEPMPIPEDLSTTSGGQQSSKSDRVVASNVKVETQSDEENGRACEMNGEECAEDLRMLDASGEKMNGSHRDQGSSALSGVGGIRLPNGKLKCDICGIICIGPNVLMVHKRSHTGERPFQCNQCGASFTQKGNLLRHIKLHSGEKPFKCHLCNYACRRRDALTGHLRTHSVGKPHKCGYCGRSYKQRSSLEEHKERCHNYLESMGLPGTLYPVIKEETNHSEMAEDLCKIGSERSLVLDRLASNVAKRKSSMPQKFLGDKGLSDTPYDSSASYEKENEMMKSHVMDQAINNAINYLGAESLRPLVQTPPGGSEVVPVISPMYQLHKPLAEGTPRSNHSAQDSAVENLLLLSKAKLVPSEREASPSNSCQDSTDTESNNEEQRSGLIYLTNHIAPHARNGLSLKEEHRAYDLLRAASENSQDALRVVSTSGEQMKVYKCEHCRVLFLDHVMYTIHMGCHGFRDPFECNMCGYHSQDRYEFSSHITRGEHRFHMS
T4 sequence (Q96SW2 whole entry): as the sequence (Q96SW2 whole entry) above
T4 sequence (Q16531 whole entry partner): as the sequence (Q16531 whole entry partner) above

IKZF2 = target: T5, IKZF2 (Homo sapiens, UniProt Q96SW2+Q9UKS7); assay: Western-blot assay of substrate protein degradation in hPBMCs, IKZF2
T5 construct: endogenous in cells; host or cells: hPBMCs (Milecell Biotechnologies)
T5 sequence (Q9UKS7 whole entry): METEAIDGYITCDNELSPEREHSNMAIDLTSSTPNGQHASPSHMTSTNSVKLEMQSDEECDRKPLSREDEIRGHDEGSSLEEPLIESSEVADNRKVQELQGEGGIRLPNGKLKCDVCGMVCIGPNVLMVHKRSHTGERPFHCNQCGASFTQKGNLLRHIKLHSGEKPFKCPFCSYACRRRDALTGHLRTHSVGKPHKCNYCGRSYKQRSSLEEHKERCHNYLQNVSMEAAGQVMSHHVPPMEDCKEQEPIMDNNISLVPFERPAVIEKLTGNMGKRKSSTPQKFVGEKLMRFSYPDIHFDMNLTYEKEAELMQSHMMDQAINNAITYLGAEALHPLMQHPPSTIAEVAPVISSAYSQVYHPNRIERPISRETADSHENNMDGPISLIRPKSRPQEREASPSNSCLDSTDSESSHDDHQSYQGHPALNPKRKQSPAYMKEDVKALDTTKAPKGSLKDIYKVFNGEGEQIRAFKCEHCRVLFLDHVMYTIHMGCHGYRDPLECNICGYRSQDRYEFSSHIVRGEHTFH
T5 sequence (Q96SW2 whole entry): as the sequence (Q96SW2 whole entry) above
T5 sequence (Q16531 whole entry partner): as the sequence (Q16531 whole entry partner) above

GSPT1 = target: T6, GSPT1 (Homo sapiens, UniProt P15170+Q96SW2); assay: Western-blot assay of substrate protein degradation in hPBMCs, GSPT1
T6 construct: endogenous in cells; host or cells: hPBMCs (Milecell Biotechnologies)
T6 sequence (P15170 whole entry): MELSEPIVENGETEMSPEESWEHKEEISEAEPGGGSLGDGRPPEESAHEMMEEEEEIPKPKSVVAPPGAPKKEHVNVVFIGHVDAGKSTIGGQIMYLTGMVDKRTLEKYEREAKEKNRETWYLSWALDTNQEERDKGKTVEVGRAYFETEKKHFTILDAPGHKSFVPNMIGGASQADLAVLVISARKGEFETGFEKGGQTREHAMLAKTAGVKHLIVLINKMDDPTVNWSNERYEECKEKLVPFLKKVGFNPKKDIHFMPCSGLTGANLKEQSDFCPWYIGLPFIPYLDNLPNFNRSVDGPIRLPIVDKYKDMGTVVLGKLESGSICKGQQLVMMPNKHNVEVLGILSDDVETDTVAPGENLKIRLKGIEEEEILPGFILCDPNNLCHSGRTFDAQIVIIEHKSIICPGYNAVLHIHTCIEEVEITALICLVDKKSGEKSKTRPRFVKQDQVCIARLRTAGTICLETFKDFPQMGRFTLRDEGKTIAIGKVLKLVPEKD
T6 sequence (Q96SW2 whole entry): as the sequence (Q96SW2 whole entry) above
T6 sequence (Q16531 whole entry partner): as the sequence (Q16531 whole entry partner) above

SMILES | IKZF3 substrate protein remaining % (IKZF3) | CK1a substrate protein remaining % (CK1α) | Weel substrate protein remaining % (WEE1) | IKZF 1 substrate protein remaining % (IKZF1) | IKZF2 substrate protein remaining % (IKZF2) | GSPT1 substrate protein remaining % (GSPT1)
O=C1CCC(N2C(=O)c3ccc(CN4CCC(c5noc6ccccc56)CC4)cc3C2=O)C(=O)N1 (stereo not drawn) [GT-06627, 5-((4-(benzo[d]isoxazol-3-yl)piperidin-1-yl)methyl)-2-(2,6-dioxopiperidin-3-yl)isoindoline-1,3-dione] | B (80%< substrate protein remaining %≤ 100%) | B (80%< substrate protein remaining %≤ 100%) | B (80%< substrate protein remaining %≤ 100%) | B (80%< substrate protein remaining %≤ 100%) | B (80%< substrate protein remaining %≤ 100%) | A (0% ≤ substrate protein remaining % ≤ 80%)
O=C1CCC(N2C(=O)c3ccc(CN4CCC(c5ccon5)CC4)cc3C2=O)C(=O)N1 (stereo not drawn) [GT-06628, 2-(2,6-dioxopiperidin-3-yl)-5-((4-(isoxazol-3-yl)piperidin-1-yl)methyl)isoindoline-1,3-dione] | B (80%< substrate protein remaining %≤ 100%) | B (80%< substrate protein remaining %≤ 100%) | B (80%< substrate protein remaining %≤ 100%) | B (80%< substrate protein remaining %≤ 100%) | B (80%< substrate protein remaining %≤ 100%) | A (0% ≤ substrate protein remaining % ≤ 80%)
O=C1CCC(N2C(=O)c3ccc(CN4CCN(c5noc6cc(F)ccc56)CC4)cc3C2=O)C(=O)N1 (stereo not drawn) [GT-06629, 2-(2,6-dioxopiperidin-3-yl)-5-((4-(6-fluorobenzo[d]isoxazol-3-yl)piperazin-1-yl)methyl)isoindoline-1,3-dione] | B (80%< substrate protein remaining %≤ 100%) | A (0% ≤ substrate protein remaining % ≤ 80%) | A (0% ≤ substrate protein remaining % ≤ 80%) | B (80%< substrate protein remaining %≤ 100%) | A (0% ≤ substrate protein remaining % ≤ 80%) | A (0% ≤ substrate protein remaining % ≤ 80%)
O=C1CCC(N2C(=O)c3ccc(CN4CCN(c5noc6ccncc56)CC4)cc3C2=O)C(=O)N1 (stereo not drawn) [GT-06630, 2-(2,6-dioxopiperidin-3-yl)-5-((4-(isoxazolo[4,5-c]pyridin-3-yl)piperazin-1-yl)methyl)isoindoline-1,3-dione] | B (80%< substrate protein remaining %≤ 100%) | A (0% ≤ substrate protein remaining % ≤ 80%) | A (0% ≤ substrate protein remaining % ≤ 80%) | B (80%< substrate protein remaining %≤ 100%) | A (0% ≤ substrate protein remaining % ≤ 80%) | A (0% ≤ substrate protein remaining % ≤ 80%)
Cc1nc(C2CCN(Cc3ccc4c(c3)C(=O)N(C3CCC(=O)NC3=O)C4=O)CC2)c2ccsc2n1 (stereo not drawn) [GT-06647, 2-(2,6-dioxopiperidin-3-yl)-5-((4-(2-methylthieno[2,3-d]pyrimidin-4-yl)piperidin-1-yl)methyl)isoindoline-1,3-dione] | B (80%< substrate protein remaining %≤ 100%) | A (0% ≤ substrate protein remaining % ≤ 80%) | A (0% ≤ substrate protein remaining % ≤ 80%) | B (80%< substrate protein remaining %≤ 100%) | A (0% ≤ substrate protein remaining % ≤ 80%) | A (0% ≤ substrate protein remaining % ≤ 80%)
Cc1nc(C2CCN(Cc3ccc4c(c3)C(=O)N(C3CCC(=O)NC3=O)C4=O)CC2)c2c3c(sc2n1)CCCC3 (stereo not drawn) [GT-06648, 2-(2,6-dioxopiperidin-3-yl)-5-((4-(2-methyl-5,6,7,8-tetrahydrobenzo[4,5]thieno[2,3-d]pyrimidin-4-yl)piperidin-1-yl)methyl)isoindoline-1,3-dione] | B (80%< substrate protein remaining %≤ 100%) | A (0% ≤ substrate protein remaining % ≤ 80%) | A (0% ≤ substrate protein remaining % ≤ 80%) | B (80%< substrate protein remaining %≤ 100%) | A (0% ≤ substrate protein remaining % ≤ 80%) | A (0% ≤ substrate protein remaining % ≤ 80%)
Cc1csc2ncnc(C3=CCN(Cc4ccc5c(c4)C(=O)N(C4CCC(=O)NC4=O)C5=O)CC3)c12 (stereo not drawn) [GT-06654, 2-(2,6-dioxopiperidin-3-yl)-5-((4-(5-methylthieno[2,3-d]pyrimidin-4-yl)-3,6-dihydropyridin-1(2H)-yl)methyl)isoindoline-1,3-dione] | B (80%< substrate protein remaining %≤ 100%) | B (80%< substrate protein remaining %≤ 100%) | A (0% ≤ substrate protein remaining % ≤ 80%) | B (80%< substrate protein remaining %≤ 100%) | B (80%< substrate protein remaining %≤ 100%) | A (0% ≤ substrate protein remaining % ≤ 80%)
O=C1CCC(N2C(=O)c3ccc(CN4C5CC4CN(c4cccc(Cl)c4Cl)C5)cc3C2=O)C(=O)N1 (stereo not drawn) [GT-06688, 5-((3-(2,3-dichlorophenyl)-3,6-diazabicyclo[3.1.1]heptan-6-yl)methyl)-2-(2,6-dioxopiperidin-3-yl)isoindoline-1,3-dione] | B (80%< substrate protein remaining %≤ 100%) | B (80%< substrate protein remaining %≤ 100%) | B (80%< substrate protein remaining %≤ 100%) | B (80%< substrate protein remaining %≤ 100%) | B (80%< substrate protein remaining %≤ 100%) | A (0% ≤ substrate protein remaining % ≤ 80%)
O=C1CCC(N2C(=O)c3ccc(CN4C[C@H]5C[C@@H]4CN5c4cccc(Cl)c4Cl)cc3C2=O)C(=O)N1 (stereo partly drawn) [GT-06690, 5-(((1R,4R)-5-(2,3-dichlorophenyl)-2,5-diazabicyclo[2.2.1]heptan-2-yl)methyl)-2-(2,6-dioxopiperidin-3-yl)isoindoline-1,3-dione] | A (0% ≤ substrate protein remaining % ≤ 80%) | B (80%< substrate protein remaining %≤ 100%) | B (80%< substrate protein remaining %≤ 100%) | B (80%< substrate protein remaining %≤ 100%) | B (80%< substrate protein remaining %≤ 100%) | A (0% ≤ substrate protein remaining % ≤ 80%)
O=C1CCC(N2C(=O)c3ccc(CN4C[C@@H]5C[C@H]4CN5c4cccc(Cl)c4Cl)cc3C2=O)C(=O)N1 (stereo partly drawn) [GT-06691, 5-(((1S,4S)-5-(2,3-dichlorophenyl)-2,5-diazabicyclo[2.2.1]heptan-2-yl)methyl)-2-(2,6-dioxopiperidin-3-yl)isoindoline-1,3-dione] | B (80%< substrate protein remaining %≤ 100%) | B (80%< substrate protein remaining %≤ 100%) | A (0% ≤ substrate protein remaining % ≤ 80%) | B (80%< substrate protein remaining %≤ 100%) | A (0% ≤ substrate protein remaining % ≤ 80%) | A (0% ≤ substrate protein remaining % ≤ 80%)
